Results published in patent US10301304B2, “Selective inhibitor of phosphatidylinositol 3-kinase-gamma” (VERTEX PHARMACEUTICALS INCORPORATED, priority 2013, dated 2019).

Assays:
[1] = Tissue drug concentrations in CD40-induced IBD model; type: in vivo, mouse; conditions: 7 days, 2 h after last dose; for Kp at 2 h / concentration at 2 h: Rag1 knock-out (Rag 1−/−), mouse, intraperitoneal; for Kp at 2 h: colon (relative to plasma); for concentration at 2 h: plasma
Experimental: The PI3Kγ inhibitor, Compound 1, was tested in a CD40 induced colitis model to determine its effect on disease course. The CD40 model of IBD is induced by injecting an anti-CD40 monoclonal antibody (agonist, i.e., activating antibody versus neutralizing antibody) into T and B cell deficient mice (Rag 1−/− mice) to induce both systemic and intestinal inflammation that leads to colitis and wasting disease via the innate immune pathway. (See, e.g., Immunity 25, 309-318, August 2006). Briefly, Rag1 knock-out mice were injected IP with the anti-CD40 monoclonal antibody FGK45. Starting on Day 0, mice were treated with PBS, vehicle or Compound 1 at 5 mg/kg b.i.d. or 10 mg/kg b.i.d. Compound 1 was administered IP for 7 days on a 10/14-hour b.i.d. dosing regimen. Compound 1 was formulated in 5% NMP/15% PEG-400/80% in a 0.5% HPMC-E50 solution in water. At study termination, serum and colon samples were collected at 2 hours following the last dose for drug concentration analysis. Body weights were measured daily during the study. Compound 1 concentrations were analyzed in the plasma samples collected 2 hours following the final dose at study termination. Concentrations were determined using a high performance liquid chromatography/tandem mass spectrometry (HPLC/MS/MS) method.

[2] = system: collagen-induced arthritis (CIA); experiment: therapeutic mouse collagen-induced arthritis (CIA) model; type: in vivo; design: Histopathology Summed Score, Knees / Therapeutic Paw Score AUC / Histopathology Summed Score, Six Joints / Histopathology Summed Score, Paws: scale not given here; conditions: for All Paw Score AUC / Histopathology Summed Score, Knees / Histopathology Summed Score, Paws / Histopathology Summed Score, Six Joints / Prophylactic Paw Score AUC / Therapeutic Paw Score AUC: 10 days; for Arthritis scores measured daily, all paws (FIG. 1): *d2-11, vs vehicle
Experimental: Compound 1 was tested in the therapeutic mouse collagen-induced arthritis (CIA) model at 2.5 mg/kg BID (5 mg/kg/day), 5 mg/kg BID (10 mg/kg/day) or 10 mg/kg BID (20 mg/kg/day). Fostamatinib, a Syk small molecule inhibitor used as a reference standard, was dosed orally at 30 mg/kg BID (60 mg/kg/day). Compounds were dosed for 10 days in a 12/12-hour BID dosing regimen until the end of the study. Compound 1 was formulated in 0.2% MC, 1% SLS. Dosing volume was 10 mL/kg. Terminal plasma samples were collected at 2, 4 and 12 hours post last dose. All four paws and both knees were collected and processed for histopathology.

CYP3A4 = CYP3A4 Induction in Human Hepatocytes; type: in vitro ADME
Experimental: CYP activity was determined by monitoring metabolite formation of specific CYP probe substrates (phenacetin for CYP1A2 and testosterone for CYP3A4) using LC-MS/MS. CYP messenger ribonucleic acid (mRNA) was analyzed by RT-PCR to confirm CYP induction potential.

[3] = system: CSF-1 stimulated pAkt in THP-1 cells (PI3Kα/β/δ); experiment: CSF-1 Stimulated pAkt in THP-1 Cells; type: cell-based; conditions: Homo sapiens; THP-1/CSF-1/pAkt, PI3K-alpha/beta/delta dependent; read-out: IC50 Avg +/− SD
Experimental: Growth factors, cytokines and other ligands of receptor tyrosine kinases, like CSF1, bind to their receptors leading to activation of the class IA PI3K signaling pathway. PI3K activation leads to generation of PIP3 and activation of downstream molecules like PDK-1 and Akt. Akt phosphorylation is a measure of PI3K activity in the cell. THP-1 cells (a human monocytic cell line) are starved overnight to deplete pAkt levels. Stimulation with CSF-1 for 5 minutes leads to PI3Kα/β/δ induced phoshorylation of Akt at the Threonine 308 and Serine 473 sites. Cells were fixed and stained for intracellular phosphoAkt (Ser 473) then analyzed on the BD FACSCalibur™ cytometer. This is a measure of cellular Class IA PI3K inhibition.

For Cc1cc(-c2cncc([C@@H](O)C(F)(F)F)c2)nc2c1C(=O)N(c1cnn(CC(F)F)c1)C2(C)C [Compound 1, (R)-6-(1-(2,2-difluoroethyl)-1H-pyrazol-4-yl)-4,7,7-trimethyl-2-(5-(2,2,2-trifluoro-1-hydroxyethyl)pyridin-3-yl)-6,7-dihydro-5H-pyrrolo[3,4-b]pyridin-5-one], the “2 h Tissue Drug Concentration, Colon” value ([1]; 5 mg/kg b.i.d. IP) was 6110 ± 6350 ng/g, the “2 h Tissue Drug Concentration, Colon” value ([1]; 10 mg/kg b.i.d. IP) was 7480 ± 9700 ng/g and the Kp at 2 h ([1]; 5 mg/kg b.i.d. IP) was 1.5. The Kp at 2 h ([1]; 10 mg/kg b.i.d. IP) was 1.2, the concentration at 2 h ([1]; 5 mg/kg b.i.d. IP) was 4020 ± 4520 ng/mL and the concentration at 2 h ([1]; 10 mg/kg b.i.d. IP) was 6220 ± 6190 ng/mL. The “reduction of arthritis scores AUC, prophylactic paws only” value (“reduction … prophylactic paws only” below) ([2]; 2.5 mg/kg BID) was 42%, the “reduction of clinical arthritis scores AUC vs vehicle, all paws” value (“reduction … all paws” below) ([2]; 2.5 mg/kg BID) was 28% and the “All Paw Score AUC” value ([2]; 2.5 mg/kg BID) was “*22.76”. The “Histopathology Summed Score, Knees” value ([2]; 2.5 mg/kg BID) was 6.83, the “Histopathology Summed Score, Paws” value ([2]; 2.5 mg/kg BID) was 8.14 and the “Histopathology Summed Score, Six Joints” value ([2]; 2.5 mg/kg BID) was 7.70. The “Prophylactic Paw Score AUC” value ([2]; 2.5 mg/kg BID) was “*41.35”, the “Therapeutic Paw Score AUC” value ([2]; 2.5 mg/kg BID) was 49.25 and the “clinical arthritis scores, prophylactic paws (FIG. 3)” value (from here on “clinical arthritis scores … (FIG. 3)”) ([2]; 2.5 mg/kg BID, *d2, 4-11) was “significantly reduced”. For the same molecule, the “Arthritis scores measured daily, all paws (FIG. 1)” value (shortened to “Arthritis scores measured daily”) ([2]; 2.5 mg/kg BID) was “significantly reduced toward normal”, the “reduction … prophylactic paws only” value ([2]; 5 mg/kg BID) was 81% and the “reduction … all paws” value ([2]; 5 mg/kg BID) was 63%. For the same molecule, the “All Paw Score AUC” value ([2]; 5 mg/kg BID) was “*11.84”, the “Histopathology Summed Score, Knees” value ([2]; 5 mg/kg BID) was “*2.53” and the “Histopathology Summed Score, Paws” value ([2]; 5 mg/kg BID) was “*3.64”. The “Histopathology Summed Score, Six Joints” value ([2]; 5 mg/kg BID) was “*3.27”, the “Prophylactic Paw Score AUC” value ([2]; 5 mg/kg BID) was “*13.35” and the “Therapeutic Paw Score AUC” value ([2]; 5 mg/kg BID) was 34.00. The “clinical arthritis scores … (FIG. 3)” value ([2]; 5 mg/kg BID, *d2-11) was “significantly reduced”, the “Arthritis scores measured daily” value ([2]; 5 mg/kg BID) was “significantly reduced toward normal” and the “clinical arthritis scores, therapeutic paws (FIG. 2)” value ([2]; 5 mg/kg BID, *d5-11) was “significantly reduced”. The “reduction … prophylactic paws only” value ([2]; 10 mg/kg BID) was 98%, the “reduction of arthritis scores AUC, therapeutic paws only” value ([2]; 10 mg/kg BID) was 79% and the “reduction … all paws” value ([2]; 10 mg/kg BID) was 89%. For the same molecule, the “All Paw Score AUC” value ([2]; 10 mg/kg BID) was “*3.34”, the “Histopathology Summed Score, Knees” value ([2]; 10 mg/kg BID) was “*0.68” and the “Histopathology Summed Score, Paws” value ([2]; 10 mg/kg BID) was “*0.79”. The “Histopathology Summed Score, Six Joints” value ([2]; 10 mg/kg BID) was “*0.75”, the “Prophylactic Paw Score AUC” value ([2]; 10 mg/kg BID) was “*1.60” and the “Therapeutic Paw Score AUC” value ([2]; 10 mg/kg BID) was “*11.75”. The “clinical arthritis scores … (FIG. 3)” value ([2]; 10 mg/kg BID, *d2-11) was “significantly reduced”, the “clinical arthritis scores, therapeutic paws (FIG. 2)” value ([2]; 10 mg/kg BID, *d2-11) was “significantly reduced” and the “Arthritis scores measured daily” value ([2]; 10 mg/kg BID) was “significantly reduced toward normal”. For the same molecule, the “CYP3A4 mRNA message” value (CYP3A4; 0.5 μM, lot 8123) was 0.4 fold change, the Testosterone-6β-Hydroxylation (CYP3A4; 0.5 μM, lot 8123) was 0.3 fold change and the “CYP3A4 mRNA message” value (CYP3A4; 0.5 μM, lot LMP) was 1.0 fold change. For the same molecule, the Testosterone-6β-Hydroxylation (CYP3A4; 0.5 μM, lot LMP) was 0.9 fold change, the “CYP3A4 mRNA message” value (CYP3A4; 0.5 μM, lot YOW) was 1.3 fold change and the Testosterone-6β-Hydroxylation (CYP3A4; 0.5 μM, lot YOW) was 1.0 fold change. The “CYP3A4 mRNA message” value (CYP3A4; 1.0 μM, lot 8123) was 0.3 fold change, the Testosterone-6β-Hydroxylation (CYP3A4; 1.0 μM, lot 8123) was 0.5 fold change and the “CYP3A4 mRNA message” value (CYP3A4; 1.0 μM, lot LMP) was 0.7 fold change. For the same molecule, the Testosterone-6β-Hydroxylation (CYP3A4; 1.0 μM, lot LMP) was 0.8 fold change, the “CYP3A4 mRNA message” value (CYP3A4; 1.0 μM, lot YOW) was 0.2 fold change and the Testosterone-6β-Hydroxylation (CYP3A4; 1.0 μM, lot YOW) was 0.8 fold change. The “CYP3A4 mRNA message” value (CYP3A4; 5.0 μM, lot 8123) was 0.5 fold change, the Testosterone-6β-Hydroxylation (CYP3A4; 5.0 μM, lot 8123) was 0.4 fold change and the “CYP3A4 mRNA message” value (CYP3A4; 5.0 μM, lot LMP) was 1.1 (1.1) fold change. The Testosterone-6β-Hydroxylation (CYP3A4; 5.0 μM, lot LMP) was 1.1 (1.1) fold change, the Testosterone-6β-Hydroxylation (CYP3A4; 5.0 μM, lot YOW) was 0.9 (NR^1) fold change and the “CYP3A4 mRNA message” value (CYP3A4; 10.0 μM, lot 8123) was 1.1 fold change. For the same molecule, the Testosterone-6β-Hydroxylation (CYP3A4; 10.0 μM, lot 8123) was 0.4 fold change, the “CYP3A4 mRNA message” value (CYP3A4; 10.0 μM, lot LMP) was 1.5 fold change and the Testosterone-6β-Hydroxylation (CYP3A4; 10.0 μM, lot LMP) was 1.1 fold change. For the same molecule, the Testosterone-6β-Hydroxylation (CYP3A4; 10.0 μM, lot YOW) was 0.8 (NR^1) fold change, the “CYP3A4 mRNA message” value (CYP3A4; 20.0 μM, lot 8123) was 0.7 fold change and the Testosterone-6β-Hydroxylation (CYP3A4; 20.0 μM, lot 8123) was 0.6 fold change. For the same molecule, the “CYP3A4 mRNA message” value (CYP3A4; 20.0 μM, lot LMP) was 3.0 fold change, the Testosterone-6β-Hydroxylation (CYP3A4; 20.0 μM, lot LMP) was 1.4 fold change and the Testosterone-6β-Hydroxylation (CYP3A4; 20.0 μM, lot YOW) was 0.6 (NR^1) fold change. For the same molecule, the Testosterone-6β-Hydroxylation (CYP3A4; 30.0 μM, lot 8123) was 0.7 (NR^2) fold change, the “CYP3A4 mRNA message” value (CYP3A4; 30.0 μM, lot LMP) was 2.5 fold change and the Testosterone-6β-Hydroxylation (CYP3A4; 30.0 μM, lot LMP) was 1.0 fold change. The Testosterone-6β-Hydroxylation (CYP3A4; 30.0 μM, lot YOW) was 0.6 (NR^1) fold change, the “change in CYP3A4 activity and mRNA levels, % of the positive control” value (CYP3A4; all three hepatocyte lots, 48 hour exposure) was “less than 20%” and the IC50 [3] was > 9.7 µM.
